IC50 and melting point data for 25 compounds are collected here from US8026362B2, “Non-nucleoside reverse transcriptase inhibitors” (Roche Palo Alto LLC, priority 2007, dated 2011).

For data set [1], the target named is HIV-1 RT (Human immunodeficiency virus type 1 group M subtype B, UniProt P04585). As to the kind of experiment: HIV-1 Reverse Transcriptase Assay (RNA-dependent DNA polymerase activity, SPA). The data set is classed as biochemical. As to conditions: 30° C., 30 min, 10% DMSO. As to the method: RNA-dependent DNA polymerase activity was measured using a biotinylated primer oligonucleotide and tritiated dNTP substrate. Newly synthesized DNA was quantified by capturing the biotinylated primer molecules on streptavidin coated Scintillation Proximity Assay (SPA) beads (Amersham). The sequences of the polymerase assay substrate were: 18 nt DNA primer, 5′-Biotin/GTC CCT GTT CGG GCG CCA-3′; 47 nt RNA template, 5′-GGGUCUCUCUGGUUAGACCACUCUAGCAGUGGCGCCCGAACAGGGAC-3′. The biotinylated DNA primer was obtained from the Integrated DNA Technologies Inc. and the RNA template was synthesized by Dharmacon. The DNA polymerase assay (final volume 50 μl) contained 32 nM biotinylated DNA primer, 64 nM RNA substrate, dGTP, dCTP, dTTP (each at 5 μM), 103 nM [^3H]-dATP (specific activity=[…]), in 45 mM Tris-HCl, pH 8.0, 45 mM NaCl, 2.7 mM Mg(CH3COO)2, 0.045% Triton X-100 w/v, 0.9 mM EDTA. The reactions contained 5 ul of serial compound dilutions in 100% DMSO for IC50 determination and the final concentrations of DMSO were 10%. Reactions were initiated by the addition of 30 μl of the HIV-RT enzyme (final concentrations of 1-3 nM). Protein concentrations were adjusted to provide linear product formation for at least 30 min of incubation. After incubation at 30° C. for 30 min, the reaction was quenched by addition of 50 μl of 200 mM EDTA (pH 8.0) and […] SA-PVT SPA beads (Amersham, RPNQ0009, reconstituted in 20 mM Tris-HCl, pH 8.0, 100 mM EDTA and 1% BSA). The beads were left to settle overnight and the SPA signals were counted in a 96-well top counter-NXT (Packard).

For `N#Cc1cc(Cl)cc(Oc2c(Br)ccc(CN3CCC(=O)NC3=O)c2F)c1` [Compound I-1, 3-[6-Bromo-3-(2,4-dioxo-tetrahydro-pyrimidin-1-ylmethyl)-2-fluoro-phenoxy]-5-chloro-benzonitrile], the melting point lay within 161.5 to 163 °C. Besides, the IC50 in data set [1] was determined as 28.7 nM.
The corresponding values for `N#Cc1cc(Cl)cc(Oc2c(Br)ccc(Cn3ccc(=O)[nH]c3=O)c2F)c1` [Compound I-3, 3-[6-Bromo-3-(2,4-dioxo-3,4-dihydro-2H-pyrimidin-1-ylmethyl)-2-fluoro-phenoxy]-5-chloro-benzonitrile] are 229 to 230.5 °C and 3.6 nM.
The corresponding values for `N#Cc1cc(Cl)cc(Oc2c(Br)ccc(Cn3cc(Cl)c(=O)[nH]c3=O)c2F)c1` [Compound I-4, 3-[6-Bromo-3-(5-chloro-2,4-dioxo-3,4-dihydro-2H-pyrimidin-1-ylmethyl)-2-fluoro-phenoxy]-5-chloro-benzonitrile] are 260.8 to 261.7 °C and 4.1 nM.
For `CCc1cn(Cc2ccc(Br)c(Oc3cc(Cl)cc(C#N)c3)c2F)c(=O)[nH]c1=O` [Compound I-5, 3-[6-Bromo-3-(5-ethyl-2,4-dioxo-3,4-dihydro-2H-pyrimidin-1-ylmethyl)-2-fluoro-phenoxy]-5-chloro-benzonitrile] the same measures were 224.6 to 225.6 °C and 1.6 nM.
Take `N#Cc1cc(Cl)cc(Oc2c(Br)ccc(Cn3cc(F)c(=O)[nH]c3=O)c2F)c1` [Compound I-6, 3-[6-Bromo-2-fluoro-3-(5-fluoro-2,4-dioxo-3,4-dihydro-2H-pyrimidin-1-ylmethyl)-phenoxy]-5-chloro-benzonitrile]: the melting point is 234 to 236 °C. Moreover, half-maximal inhibition in data set [1] (IC50) required 2.2 nM.
For `N#Cc1cc(Cl)cc(Oc2c(Br)ccc(Cn3cc(C(F)(F)F)c(=O)[nH]c3=O)c2F)c1` [Compound I-7, 3-[6-Bromo-3-(2,4-dioxo-5-trifluoromethyl-3,4-dihydro-2H-pyrimidin-1-ylmethyl)-2-fluoro-phenoxy]-5-chloro-benzonitrile] the same measures were 110 to 112 °C and 6 nM.
Consider `Cc1cn(Cc2ccc(Br)c(Oc3cc(C#N)cc(C#N)c3)c2F)c(=O)[nH]c1=O` [Compound I-8, 5-[6-Bromo-2-fluoro-3-(5-methyl-2,4-dioxo-3,4-dihydro-2H-pyrimidin-1-ylmethyl)-phenoxy]-isophthalonitrile], for which the melting point fell in the range of 235.6 to 236 °C. This compound registered an IC50 in data set [1] of 4.3 nM.
Take `N#Cc1cc(C#N)cc(Oc2c(Br)ccc(Cn3cc(Cl)c(=O)[nH]c3=O)c2F)c1` [Compound I-9, 5-[6-Bromo-3-(5-chloro-2,4-dioxo-3,4-dihydro-2H-pyrimidin-1-ylmethyl)-2-fluoro-phenoxy]-isophthalonitrile]: the melting point is 255 to 255.6 °C. Half-maximal inhibition in data set [1] (IC50) required 5.2 nM.
In data set [1], `CCc1cn(Cc2ccc(Br)c(Oc3cc(C#N)cc(C#N)c3)c2F)c(=O)[nH]c1=O` [Compound I-10, 5-[6-Bromo-3-(5-ethyl-2,4-dioxo-3,4-dihydro-2H-pyrimidin-1-ylmethyl)-2-fluoro-phenoxy]-isophthalonitrile] showed an IC50 of 13.5 nM.
Consider `N#Cc1cc(C#N)cc(Oc2c(Br)ccc(Cn3ccc(=O)[nH]c3=O)c2F)c1` [Compound I-11, 5-[6-Bromo-3-(2,4-dioxo-3,4-dihydro-2H-pyrimidin-1-ylmethyl)-2-fluoro-phenoxy]-isophthalonitrile], for which the melting point is 132 to 133 °C. This compound also came in with an IC50 in data set [1] of 22.9 nM.
In turn, `N#Cc1cc(Cl)cc(Oc2c(Br)ccc(Cn3ccc(N)nc3=O)c2F)c1` [Compound I-12, 3-[3-(4-Amino-2-oxo-2H-pyrimidin-1-ylmethyl)-6-bromo-2-fluoro-phenoxy]-5-chloro-benzonitrile] registered a melting point of 240 to 245 °C. Besides, the IC50 in data set [1] came to 148 nM.
For `Cc1cn(Cc2ccc(Br)c(Oc3cc(Cl)cc(C#N)c3)c2F)c(=O)nc1N` [Compound I-13, 3-[3-(4-Amino-5-methyl-2-oxo-2H-pyrimidin-1-ylmethyl)-6-bromo-2-fluoro-phenoxy]-5-chloro-benzonitrile] the same measures were 262.7 to 263.7 °C and 19.6 nM.
The compound `Cc1cn(CCc2ccc(Br)c(Oc3cc(Cl)cc(C#N)c3)c2F)c(=O)[nH]c1=O` [Compound I-14, 3-{6-Bromo-2-fluoro-3-[2-(5-methyl-2,4-dioxo-3,4-dihydro-2H-pyrimidin-1-yl)-ethyl]-phenoxy}-5-chloro-benzonitrile] had a melting point of 198 to 200 °C. In data set [1], this compound had an IC50 of 7 nM.
The corresponding values for `N#Cc1cc(Cl)cc(Oc2c(Br)ccc(Cn3cc(C#N)c(=O)[nH]c3=O)c2F)c1` [Compound I-15, 1-[4-Bromo-3-(3-chloro-5-cyano-phenoxy)-2-fluoro-benzyl]-2,4-dioxo-1,2,3,4-tetrahydro-pyrimidine-5-carbonitrile] are 246.9 to 247.8 °C and 61.2 nM.
Consider `Cc1cc(=O)[nH]c(=O)n1Cc1ccc(Br)c(Oc2cc(Cl)cc(C#N)c2)c1F` [Compound I-16, 3-[6-Bromo-2-fluoro-3-(6-methyl-2,4-dioxo-3,4-dihydro-2H-pyrimidin-1-ylmethyl)-phenoxy]-5-chloro-benzonitrile], for which the melting point fell in the range of 227 to 228 °C. The compound further registered an IC50 in data set [1] of 26.1 nM.
As for `Cc1cn(Cc2ccc(Cl)c(Oc3cc(Cl)cc(C#N)c3)c2F)c(=O)[nH]c1=O` [Compound I-17, 3-Chloro-5-[6-chloro-2-fluoro-3-(5-methyl-2,4-dioxo-3,4-dihydro-2H-pyrimidin-1-ylmethyl)-phenoxy]-benzonitrile], the melting point was 226 to 227.5 °C. The compound also came in with an IC50 in data set [1] of 3.1 nM.
As to `N#Cc1cc(Cl)cc(Oc2c(Cl)ccc(Cn3cc(Cl)c(=O)[nH]c3=O)c2F)c1` [Compound I-18, 3-Chloro-5-[6-chloro-3-(5-chloro-2,4-dioxo-3,4-dihydro-2H-pyrimidin-1-ylmethyl)-2-fluoro-phenoxy]-benzonitrile], the melting point was 267.2 to 268 °C. Besides, the IC50 in data set [1] stood at 3.7 nM.
For `COc1cn(Cc2ccc(Br)c(Oc3cc(Cl)cc(C#N)c3)c2F)c(=O)[nH]c1=O` [Compound I-19, 3-[6-Bromo-2-fluoro-3-(5-methoxy-2,4-dioxo-3,4-dihydro-2H-pyrimidin-1-ylmethyl)-phenoxy]-5-chloro-benzonitrile] the same measures were 190 to 191.1 °C and 2.9 nM.
The compound `C[C@@H]1C(=O)NC(=O)N1Cc1ccc(Br)c(Oc2cc(Cl)cc(C#N)c2)c1F` [Compound I-21, 3-[6-Bromo-2-fluoro-3-((R)-5-methyl-2,4-dioxo-imidazolidin-1-ylmethyl)-phenoxy]-5-chloro-benzonitrile] returned a melting point of 119 to 120 °C. Also, half-maximal inhibition in data set [1] (IC50) was put at 16.9 nM.
Regarding `C=CCC1C(=O)NC(=O)N1Cc1ccc(Br)c(Oc2cc(Cl)cc(C#N)c2)c1F` (centres unmarked) [Compound I-22, 3-[3-(5-Allyl-2,4-dioxo-imidazolidin-1-ylmethyl)-6-bromo-2-fluoro-phenoxy]-5-chloro-benzonitrile], the melting point lay within 200 to 201 °C. Moreover, 1000 nM corresponded to half-maximal inhibition in data set [1] (IC50).
The corresponding values for `Cc1cn(Cc2ccc(Br)c(Oc3cc(Cl)cc(C#N)c3)c2F)c(=S)[nH]c1=O` [Compound I-23, 3-[6-Bromo-2-fluoro-3-(5-methyl-4-oxo-2-thioxo-3,4-dihydro-2H-pyrimidin-1-ylmethyl)-phenoxy]-5-chloro-benzonitrile] are 225 to 226 °C and 5.5 nM.
Take `N#Cc1cc(Cl)cc(Oc2c(Br)ccc(Cn3cc(CO)c(=O)[nH]c3=O)c2F)c1` [Compound I-24, 3-[6-Bromo-2-fluoro-3-(5-hydroxymethyl-2,4-dioxo-3,4-dihydro-2H-pyrimidin-1-ylmethyl)-phenoxy]-5-chloro-benzonitrile]: the melting point lay within 226 to 227 °C. Also, the IC50 in data set [1] worked out at 11.1 nM.
The corresponding values for `CCc1ccc(Cn2cc(C)c(=O)[nH]c2=O)c(F)c1Oc1cc(Cl)cc(C#N)c1` [Compound I-25, 3-Chloro-5-[6-ethyl-2-fluoro-3-(5-methyl-2,4-dioxo-3,4-dihydro-2H-pyrimidin-1-ylmethyl)-phenoxy]-benzonitrile] are 180.5 to 181.5 °C and 1.8 nM.
Take `CCc1ccc(Cn2cc(Cl)c(=O)[nH]c2=O)c(F)c1Oc1cc(Cl)cc(C#N)c1` [Compound I-26, 3-Chloro-5-[3-(5-chloro-2,4-dioxo-3,4-dihydro-2H-pyrimidin-1-ylmethyl)-6-ethyl-2-fluoro-phenoxy]-benzonitrile]: the IC50 in data set [1] turned out to be 1.4 nM.
In turn, `CN1C(=O)NC(=O)C1Cc1ccc(Br)c(Oc2cc(Cl)cc(C#N)c2)c1F` (centres unmarked) [Compound I-32, 3-[6-Bromo-2-fluoro-3-(3-methyl-2,5-dioxo-imidazolidin-4-ylmethyl)-phenoxy]-5-chloro-benzonitrile] yielded an IC50 in data set [1] of 6.3 nM.
